Source: paper PMC4809600, “The Influence of Chronic Wound Extracts on Inflammatory Cytokine and Histatin Stability” (PLoS ONE, 2016)
Where no end group is shown, it is not given here.

What was measured:
[1] = Stability in CWE with protease inhibitor cocktail (PIC), capillary zone electrophoresis; assay type: in vitro ADME, human; details: 37°C, CZE, 0 h = 100%; for Percentage intact, CWE + PIC 2h / Percentage intact, CWE + PIC 4h / Percentage intact, CWE + PIC 8h / Percentage intact, CWE + PIC 16h / Percentage intact, CWE + PIC 24h / Percentage intact, CWE + PIC 48h / Percentage intact, CWE + PIC 72h / Percentage intact, CWE + PIC 96h: 1 mg/ml in PBS mixed 1:1 with CWE (1 mg/ml protein, pool of 5 donors) in PBS containing PIC (final 1:140 v/v), ratio to imidazole
Excerpt: (§1) Debridement tissue was obtained from chronic ulcers of 15 patients with therapy resistant (arterio-venous) leg ulcers, according to procedures described earlier. In brief, moist, easily removable debridement material, essentially blood free, was collected from the ulcer surface and divided equally into two different solutions: (i) PBS (B. Braun, Melsungen, Germany), (ii) PBS with protease inhibitor cocktail (PIC) (1:100; v/v) (Sigma-Aldrich, Steinheim, Germany). The mixtures were gently shaken for 1 h at 4°C to elute proteins and centrifuged; the supernatants were stored at -80°C. Total protein content of the supernatant was measured using the BioRad Protein Assay (BioRad Laboratories, Hercules, California, USA) essentially as described by the supplier. Samples were diluted to 1 mg/ml protein and extracts of five different donors were pooled; three different pools of five donors were used in all experiments. The samples are referred to as chronic wound extracts (CWE).
(§2) To determine the stability of the different peptides in CWE, histatins and cytokines were dissolved in PBS at 1 mg/ml. Histatins and cytokines were incubated in a 1:1 ratio with (i) PBS, (ii) CWE in PBS, or (iii) CWE in PBS containing PIC, in a total volume of 25 μl. Imidazole (Sigma-Aldrich) was added as an internal standard, with a final concentration of 100 μg/ml. The mixtures were incubated at 37°C, and samples were taken at 0, 24, 48, 72 and 96 h. For histatins containing mixtures, additional samples were taken after 2, 4, 8 and 16 h of incubation.
(§3) The samples were analyzed with a BioFocus 2000 capillary zone electrophoresis system (Bio-Rad Laboratories, Hercules, CA, USA) equipped with an uncoated fused-silica capillary of internal diameter 50 μm and a length of 24 cm. Samples were loaded by pressure injection (5 psi/sec). Separation was performed at 10 kV (cathode at the detector side) at 20°C using 0.1 M phosphate buffer (pH 2.5) as electrolyte and monitored continuously at 200 nm. Peaks were quantified with the BioFocus Integrator software. In order to quantify the percentage of intact peptides remaining after incubation with CWE, the ratios of histatins, rhIL-6 or rhCXCL8 to internal standard was set at 100% at 0h, and the ratios at the other incubation time points were related to this.

[2] = Stability in chronic wound extracts (CWE), capillary zone electrophoresis; assay type: in vitro ADME, human; details: 37°C, CZE; for Percentage intact, CWE 2h / Percentage intact, CWE 4h / Percentage intact, CWE 8h / Percentage intact, CWE 16h / Percentage intact, CWE 24h / Percentage intact, CWE 48h / Percentage intact, CWE 72h / Percentage intact, CWE 96h: 1 mg/ml in PBS mixed 1:1 with CWE (1 mg/ml protein, pool of 5 donors) in PBS, UV 200 nm, ratio to imidazole
Excerpt: as §1, §2, §3

Percentage intact, CWE + PIC 2h ([1]; experiment 1 of 3): 91.8564%
Percentage intact, CWE + PIC 2h ([1]; experiment 2 of 3): 90.6434%
Percentage intact, CWE + PIC 2h ([1]; experiment 3 of 3): 99.1023%
Percentage intact, CWE + PIC 4h ([1]; experiment 1 of 3): 81.1086%
Percentage intact, CWE + PIC 4h ([1]; experiment 2 of 3): 81.649%
Percentage intact, CWE + PIC 4h ([1]; experiment 3 of 3): 84.0062%
Percentage intact, CWE + PIC 8h ([1]; experiment 1 of 3): 76.5843%
Percentage intact, CWE + PIC 8h ([1]; experiment 2 of 3): 75.4466%
Percentage intact, CWE + PIC 8h ([1]; experiment 3 of 3): 82.0587%
Percentage intact, CWE + PIC 16h ([1]; experiment 1 of 3): 72.2461%
Percentage intact, CWE + PIC 16h ([1]; experiment 2 of 3): 65.5164%
Percentage intact, CWE + PIC 16h ([1]; experiment 3 of 3): 70.9806%
Percentage intact, CWE + PIC 24h ([1]; 24 h, experiment 1 of 3): 78.4236%
Percentage intact, CWE + PIC 24h ([1]; 24 h, experiment 2 of 3): 69.711%
Percentage intact, CWE + PIC 24h ([1]; 24 h, experiment 3 of 3): 68.9989%
Percentage intact, CWE + PIC 48h ([1]; experiment 1 of 3): 73.7424%
Percentage intact, CWE + PIC 48h ([1]; experiment 2 of 3): 59.1893%
Percentage intact, CWE + PIC 48h ([1]; experiment 3 of 3): 54.0682%
Percentage intact, CWE + PIC 72h ([1]; experiment 1 of 3): 64.2173%
Percentage intact, CWE + PIC 72h ([1]; experiment 2 of 3): 41.8342%
Percentage intact, CWE + PIC 72h ([1]; experiment 3 of 3): 36.0529%
Percentage intact, CWE + PIC 96h ([1]; experiment 1 of 3): 48.0273%
Percentage intact, CWE + PIC 96h ([1]; experiment 2 of 3): 30%
Percentage intact, CWE + PIC 96h ([1]; experiment 3 of 3): 21.2156%
remaining at 24 h, 0.5 mg/ml ([1]; human, with protease inhibitor cocktail (PIC), CWE with protease inhibitor cocktail (final 1:140 v/v), 24 h, mean of 3 independent experiments, read-out: Remaining fraction of intact peptide after 24 h in CWE + PIC): 72%
Percentage intact, CWE 2h ([2]; 0 h = 100%, experiment 1 of 3): 83.2738%
Percentage intact, CWE 2h ([2]; 0 h = 100%, experiment 2 of 3): 87.1828%
Percentage intact, CWE 2h ([2]; 0 h = 100%, experiment 3 of 3): 86.6201%
Percentage intact, CWE 4h ([2]; 0 h = 100%, experiment 1 of 3): 58.4193%
Percentage intact, CWE 4h ([2]; 0 h = 100%, experiment 2 of 3): 76.5418%
Percentage intact, CWE 4h ([2]; 0 h = 100%, experiment 3 of 3): 73.9107%
Percentage intact, CWE 8h ([2]; 8 h, 0 h = 100%, experiment 1 of 3): 32.9227%
Percentage intact, CWE 8h ([2]; 8 h, 0 h = 100%, experiment 2 of 3): 52.8031%
Percentage intact, CWE 8h ([2]; 8 h, 0 h = 100%, experiment 3 of 3): 51.366%
Percentage intact, CWE 16h ([2]; 0 h = 100%, experiment 1 of 3): 8.0136%
Percentage intact, CWE 16h ([2]; 0 h = 100%, experiment 2 of 3): 20.767%
Percentage intact, CWE 16h ([2]; 0 h = 100%, experiment 3 of 3): 27.1396%
Percentage intact, CWE 24h ([2]; 24 h, 0 h = 100%, experiment 1 of 3): 1.592%
Percentage intact, CWE 24h ([2]; 24 h, 0 h = 100%, experiment 2 of 3): 7.881%
Percentage intact, CWE 24h ([2]; 24 h, 0 h = 100%, experiment 3 of 3): 13.5375%
Percentage intact, CWE 48h ([2]; 0 h = 100%, experiment 1 of 3): 0.0001%
Percentage intact, CWE 48h ([2]; 0 h = 100%, experiment 2 of 3): 0.0001%
Percentage intact, CWE 48h ([2]; 0 h = 100%, experiment 3 of 3): 0.0001%
Percentage intact, CWE 72h ([2]; 0 h = 100%, experiment 1 of 3): 0.0001%
Percentage intact, CWE 72h ([2]; 0 h = 100%, experiment 2 of 3): 0.0001%
Percentage intact, CWE 72h ([2]; 0 h = 100%, experiment 3 of 3): 0.0001%
Percentage intact, CWE 96h ([2]; 0 h = 100%, experiment 1 of 3): 0.0001%
Percentage intact, CWE 96h ([2]; 0 h = 100%, experiment 2 of 3): 0.0001%
Percentage intact, CWE 96h ([2]; 0 h = 100%, experiment 3 of 3): 0.0001%
remaining at 8 h, 0.5 mg/ml ([2]; human, chronic wound extracts (CWE), 1 mg/ml in PBS mixed 1:1 with CWE (1 mg/ml protein, pools of 5 donors), 8 h, 0 h = 100%, mean of 3 independent experiments, read-out: Original amount of peptide remaining intact after 8 h in CWE): 46%
remaining at 24 h, 0.5 mg/ml ([2]; human, chronic wound extracts (CWE), 1 mg/ml in PBS mixed 1:1 with CWE (1 mg/ml protein, pools of 5 donors), 24 h, 0 h = 100%, mean of 3 independent experiments, read-out: Original amount of peptide remaining intact after 24 h in CWE): 8%
metabolised at 8 h, 0.5 mg/ml ([2]; human, chronic wound extracts (CWE), incubation with chronic wound extracts, 8 h, read-out: Breakdown (degradation) in CWE in 8 h): ~50%
Sequence: DSHEKRHHGYRRKFHEKHHSHREFPFYGDYGSNYLYDN [Hst1]
